Test results reported in patent publication US12473305B2, “Pyrazole boronic acid compound, pharmaceutical composition containing same, and uses thereof” (BEIJING SONGRUN PHARMACEUTICAL TECHNOLOGY CO., LTD., priority 2020, dated 2025).
Structures can show the parent of a compound that is named as a salt.

Columns and labels:
[1] = system: colorectal cancer cell line HCT116; test: CellTiter-Glo tumor cell proliferation, HCT116; format: cell-based, human; details: Homo sapiens, HCT-116, 72 h
Method: (§1) The effect of compounds on tumor cell proliferation was detected by CellTiter-Glo method. Human melanoma cell line A375, non-small cell lung cancer cell line A549, human lung adenocarcinoma cell line H1299, colorectal cancer cell line HCT116, liver cancer cell line HepG2 and gastric cancer cell line MGC80-3 were cultured in vitro. The cells were collected after growing to the logarithmic growth phase, centrifuged at 1000 rpm for 5 min, and suspended in an appropriate amount of medium after discarding the supernatant, and the cell concentration was adjusted to 2×10^4/mL. The cell suspension was inoculated onto the 384-well cell culture plate, with 50 μL per well. After being cultured in a cell incubator (37° C., 5% CO2) for 24 h, 5 μL of drug diluted by the cell culture medium was added into each well for the treatment group. Each drug was provided in triplicate. After 72 h incubation in the incubator, 20 μL of CellTiter-Glo was added into each well, and the relative luminescence unit (RLU) was measured with Multimode Microplate Reader Varioskan Flash (Thermo Scientific, USA) after placed at 37° C. for 20 min, and compared with the RLU of the control group. SigmaPlot 10.0 software was used to calculate the inhibition rate and IC50 value.

[2] = system: human lung adenocarcinoma cell line H1299; test: CellTiter-Glo tumor cell proliferation, H1299; format: cell-based; details: NCI-H1299, 72 h
Method: as §1

[3] = system: Human melanoma cell line A375; test: CellTiter-Glo tumor cell proliferation, A375; format: cell-based; details: Homo sapiens, A-375, 72 h
Method: as §1

[4] = system: non-small cell lung cancer cell line A549; test: CellTiter-Glo tumor cell proliferation, A549; format: cell-based, human; details: Homo sapiens, A549, 72 h, read-out: Inhibition rate A549 (%)
Method: as §1

[5] = system: human liver cancer Bel7404; test: Antitumor activity in vivo, Bel7404 transplanted in nude mice; set-up: species or system male BALB/c athymic nude mice; details: 15 mg/kg
Method: In the test, the Bel7404 models of human liver cancer transplanted into 6-week-old male BALB/c athymic nude mice (purchased from Shanghai Slac Laboratory Animal Co., Ltd.) with body weight of 18-20 g were used to study the anti-tumor effect of compound 30. The dose of compound 30 was 50 mg/kg (30H group), 25 mg/kg (30 M group) and 12.5 mg/kg (30 L group), respectively, and was injected intravenously twice a week for 5 times in total; at the same time, 5-FU was used as the control drug, which was injected intraperitoneally twice a week for 7 times in total (5 mice/group for the compound 30 administration group, 5 mice in 5 FU administration group; 8 mice were used as the mock group). The long diameter a (mm) and the vertical short diameter b (mm) of the tumor were measured twice a week with a digital electronic caliper. The tumor volume calculation formula was TV=ab^2/2; and the relative tumor volume calculation formula was RTV=Vt/Vo, wherein Vo was the tumor volume measured on the first day of administration (d1), and Vt was the tumor volume at each measurement. On the 22nd day of administration (d22), the animals were sacrificed and weighed. The tumor mass was dissected and weighed. The tumor inhibition rate (tumor inhibitory rate, %) was calculated according to the following formula: […]

[6] = system: liver cancer cell line HepG2; test: CellTiter-Glo tumor cell proliferation, HepG2; format: cell-based, human
Method: as §1

CC(C)C[C@H](NC(=O)Cn1nc(-c2ccccc2OS(=O)(=O)c2cccc(C(F)(F)F)c2)cc1-c1ccccc1)B(O)O [Compound 1, (R)-(3-methyl-1-(2-(5-phenyl-3-(2-(((3-(trifluoromethyl)phenyl)sulfonyl)oxy)phenyl)-1H-pyrazol-1-yl)acetamido)butyl)boronic acid]
inhibition at 1 µM ([1]; 1 μM, read-out: Inhibition rate HCT116 (%)): 13.1%
inhibition at 10 µM ([1]; 10 μM, read-out: Inhibition rate HCT116 (%)): 98%
IC50 ([1]; CellTiter-Glo): 6530 nM
IC50 [2]: 7190 nM
inhibition at 1 µM ([3]; 1 μM, read-out: Inhibition rate A375 (%)): 5.8%
inhibition at 10 µM ([3]; 10 μM, read-out: Inhibition rate A375 (%)): 98.4%
IC50 ([3]; CellTiter-Glo): 8910 nM
inhibition at 1 µM ([4]; 1 μM): 11.9%
inhibition at 10 µM ([4]; 10 μM): 66.4%

O=c1[nH]cc(F)c(=O)[nH]1 [Compound 5FU, 5-FU, reference compound]
RTV (d22) ([5]; ip × 7): 2.78 ± 0.37
Animal weight (g) (After tumor removal) ([5]; ip × 7, d22): 23.14 ± 0.58 g
Inhibition rate % ([5]; ip × 7, d22): 53.77%

CC(C)C[C@H](NC(=O)Cn1nc(-c2cccc(OCCCN3CCN(c4ccccc4)CC3)c2)cc1-c1ccccc1)B(O)O [Compound 40, (R)-(3-methyl-1-(2-(5-phenyl-3-(3-(3-(4-phenylpiperazin-1-yl)propoxy)phenyl)-1H-pyrazol-1-yl)acetamido)butyl)boronic acid dihydrochloride]
IC50 ([6]; Homo sapiens, HepG2, 72 h): 101 nM

CC(C)C[C@H](NC(=O)Cn1nc(-c2cccc(OCCCCN3CCN(c4ccccc4)CC3)c2)cc1-c1ccccc1)B(O)O [Compound 41, (R)-(3-methyl-1-(2-(5-phenyl-3-(3-(4-(4-phenylpiperazin-1-yl)butoxy)phenyl)-1H-pyrazol-1-yl)acetamido)butyl)boronic acid dihydrochloride]
IC50 ([6]; Homo sapiens, HepG2, 72 h): 123 nM

((1R)-1-(2-(3-(3-(2-(S,R-2,6-dimethylmorpholino)ethoxy)phenyl)-5-phenyl-1H-pyrazol-1-yl)acetamido)-3-methylbutyl)boronic acid hydrochloride [Compound 38]
IC50 ([6]; 72 h): 126 nM

((1R)-1-(2-(3-(3-(2-(S,S-2,6-dimethylmorpholino)ethoxy)phenyl)-5-phenyl-1H-pyrazol-1-yl)acetamido)-3-methylbutyl)boronic acid hydrochloride [Compound 37]
IC50 ([6]; 72 h): 60 nM

(R)-(3-methyl-1-(2-(5-phenyl-3-(3-((5-(4-phenylpiperazin-1-yl)pentyl)oxy)phenyl)-1H-pyrazol-1-acyl)acetamido)butyl)boronic acid dihydrochloride [Compound 42]
IC50 ([6]; 72 h): 121 nM
